# Key:
# [1] = tested on: scurvy; conditions: dietary; cited from earlier work
# [2] = tested on: CS-induced atherosclerosis in guinea pig aorta; experiment: Cigarette-smoke-induced atherosclerosis in guinea pig aorta (H&E and Oil red O staining of aortic sections); type: in vivo; conditions: dietary supplementation of vitamin C 5 mg/day in addition to CS exposure; aortic sections stained with H&E or Oil red O (FIG. 3)
# Method: Two to six, preferably three to four, month old male guinea pigs weighing between about 350 to about 450 grams (g) are used. All animals are maintained on a vitamin C-free diet for 7 days in order to minimize the in vivo levels of vitamin C in plasma and tissues. After 7 days of vitamin C deprivation, the guinea pigs are given a dietary supplementation of about 1 milligram (mg) of vitamin C per day (1 mg vitamin C/day) to prevent the onset of scurvy. (It is known that a dose of 0.8 mg vitamin C/day is sufficient to maintain guinea pigs without the development of scurvy.) Thereafter, the guinea pigs are subjected to cigarette smoke exposure (3 cigarettes per animal per day (3 cigarettes/animal/day) with 2 puffs per cigarette (2 puffs/cigarette)). Two puffs per cigarette indicate that the burning of a cigarette is divided into two halves. In each half, animals are exposed to cigarette smoke for a period of 1 minute (min.). There is an interval of 1 min. between these two halves. During this interval, animals are exposed to normal atmospheric air. Likewise, 3 puffs/cigarette would indicate that the burning of a cigarette is divided into three approximately equal parts with two intervals in between. […]
structure (smiles),measurement,setting,value
"O=C1O[C@H]([C@@H](O)CO)C(O)=C1O [vitamin C, L-ascorbic acid]",dose sufficient to maintain guinea pigs without the development of scurvy,[1],0.8 mg vitamin C/day
same,effect on CS-induced atherogenic changes in guinea pig aorta,[2],prevents CS-induced atherogenic changes

# Reference: patent publication US8541645B2, “Animal model for cigarette-smoke-induced atherosclerosis and related methods” (University of Calcutta, priority 2009, dated 2013)
